Test results as given in ChEMBL document CHEMBL1201862, “PubChem BioAssay data set” (2004).
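Compound exposure: 48 hours, 5 concentrations, 96-well plates. The concentration for 50% growth inhibition is given as GI50.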 The source made the active and inactive calls. Rule as the data show it: active = GI50 up to about 1.1 µM and inactive = higher. Peptide text beside a SMILES is read from it. * marks the point of attachment. X27 = Clc1c(Cl)c(Cl)c(O*)c(Cl)c1Cl; Boc = CC(C)(C)OC(=O)*; OBn = c1ccc(CO*)cc1; Bn = c1ccc(C*)cc1

Assays:
Test in all cases: growth of human tumour cells (NCI), 48 h
[1] = system: NCI-H460
[2] = system: OVCAR-8
[3] = system: CCRF-CEM
[4] = system: SK-OV-3
[5] = system: SK-MEL-28
[6] = system: NCI-H23
[7] = system: UO-31
[8] = system: SR
[9] = system: SNB-19
[10] = system: IGROV-1
[11] = system: LOX IMVI
[12] = system: EKVX
[13] = system: SNB-75
[14] = system: RPMI-8226
[15] = system: PC-3
[16] = system: MCF7
[17] = system: MDA-MB-435
[18] = system: MDA-MB-231

Measured: GI50

Cc1c2c(cc3c1C(=O)C(=O)C1=C3OC[C@@H]1C)C(C)(C)CCC2
inactive: [1] 13.7 µM | [2] 18.2 µM | [3] 18 µM | [4] 41.9 µM | [5] 14 µM | [6] 14.8 µM | [7] 18.7 µM | [8] 11.6 µM | [9] 22.1 µM | [10] 19.7 µM | [11] 7.43 µM | [12] 20.9 µM | [13] 26.1 µM

[O-][S+]1C(=c2ccc(=C3Sc4ccccc4S3)cc2)Sc2ccccc21 (centres undefined)
inactive: [1] 18.2 µM | [2] 17.9 µM | [3] > 94.4 µM | [4] 21.8 µM | [14] > 100 µM | [5] 3.03 µM | [6] 16.3 µM | [7] 17.2 µM | [8] 89.5 µM | [9] 17 µM | [10] 38.5 µM | [11] 17.9 µM | [12] 20 µM | [13] 19.1 µM

COc1ccc(OC)c(CCc2cc(OC)c(OC)cc2C)c1
inactive: [1] 34.2 µM | [2] 48.5 µM | [3] 11 µM | [4] 23 µM | [14] 14.4 µM | [5] 9.38 µM | [6] 32.1 µM | [7] 30.1 µM | [9] 92.7 µM | [10] 8.47 µM | [12] 84.9 µM | [13] 16.8 µM

COc1ccc(C2=Nc3ccccc3SC(C)C2)cc1 (centres undefined)
inactive: [1] > 100 µM | [2] > 100 µM | [3] 33.4 µM | [4] > 100 µM | [14] 17.3 µM | [5] > 100 µM | [6] > 100 µM | [7] > 100 µM | [9] > 100 µM | [10] > 100 µM | [11] 38.4 µM | [12] > 100 µM | [13] > 100 µM

N#Cc1cccc(C2SCc3nc4ccccc4n32)c1 (centres undefined)
inactive: [1] > 100 µM | [2] > 100 µM | [3] > 100 µM | [4] > 100 µM | [5] > 100 µM | [6] 74.8 µM | [7] 61.1 µM | [8] 38.4 µM | [9] > 100 µM | [10] 32.9 µM | [11] > 100 µM | [12] 67.6 µM

CCCCNC1CCCCC[C@H]1O (some centres undefined)
inactive: [1] > 100 µM | [2] > 100 µM | [3] > 100 µM | [4] > 100 µM | [14] > 100 µM | [5] > 100 µM | [6] > 100 µM | [7] > 100 µM | [8] > 100 µM | [9] > 100 µM | [10] > 100 µM | [11] > 100 µM | [12] > 100 µM | [13] > 100 µM

CCC1C(=O)OCc2c1cc1n(c2=O)Cc2ccccc2-1 (centres undefined)
inactive: [1] > 100 µM | [2] > 100 µM | [3] > 100 µM | [14] > 100 µM | [5] > 100 µM | [6] > 100 µM | [7] > 100 µM | [8] > 100 µM | [9] > 100 µM | [10] > 100 µM | [11] > 100 µM | [12] > 100 µM | [13] > 100 µM

COc1ccc(C2C(Cl)C(=O)N2n2cnc3ccccc3c2=O)cc1 (centres undefined)
inactive: [1] 70.5 µM | [2] 51.5 µM | [3] > 10 µM | [4] > 100 µM | [14] 33.4 µM | [5] > 100 µM | [6] 94 µM | [7] 71 µM | [8] 33 µM | [9] > 100 µM | [10] > 100 µM | [11] 77.6 µM | [12] 50.7 µM | [13] 29.4 µM

O=Cn1c2ccccc2c2ccccc21
inactive: [1] > 100 µM | [2] > 100 µM | [3] > 100 µM | [4] > 100 µM | [14] > 100 µM | [5] > 100 µM | [6] > 100 µM | [7] > 100 µM | [8] > 100 µM | [9] > 100 µM | [10] > 100 µM | [11] > 100 µM | [12] > 100 µM

O=[N+]([O-])c1ccc(C2N3CCCCC3[C@H]3CCCCN23)cc1 (some centres undefined)
inactive: [1] > 100 µM | [2] > 100 µM | [3] > 100 µM | [4] > 100 µM | [14] > 100 µM | [5] > 100 µM | [6] > 100 µM | [7] > 100 µM | [8] > 100 µM | [9] > 100 µM | [10] > 100 µM | [11] > 100 µM | [12] > 100 µM | [13] > 100 µM

NC(=O)NNC(=O)CCn1[nH]c(=O)c(Cl)c(Cl)c1=O
inactive: [1] > 100 µM | [2] > 100 µM | [3] > 100 µM | [4] > 100 µM | [5] > 100 µM | [6] > 100 µM | [7] > 100 µM | [9] > 100 µM | [10] > 100 µM | [11] > 100 µM | [12] > 100 µM | [13] > 100 µM

CC(C)CC(NC(=O)C(CCC(=O)OCc1ccccc1)NC(=O)OC(C)(C)C)C(=O)NC(COCc1ccccc1)C(=O)NC(Cc1ccccc1)C(=O)Oc1c(Cl)c(Cl)c(Cl)c(Cl)c1Cl (centres undefined) (Boc-E(OBn)LS(Bn)F-X27; configuration not given here)
inactive: [1] 27.2 µM | [15] > 100 µM | [2] 27 µM | [3] 26.7 µM | [4] 28.5 µM | [14] 20.5 µM | [5] 19.2 µM | [6] 16.1 µM | [16] 22.6 µM | [7] 22.2 µM | [8] 29.2 µM | [9] 28.7 µM | [17] 26.2 µM | [10] 20.7 µM | [11] > 100 µM | [18] 15.6 µM | [12] 16 µM | [13] 40.2 µM

COc1ccccc1C1C(C(=O)Nc2ccccc2)=C(C)NC(C)=C1C(=O)Nc1ccccc1
inactive: [1] 44 µM | [2] > 100 µM | [4] > 100 µM | [14] 19.5 µM | [5] > 100 µM | [6] > 100 µM | [7] 56.5 µM | [9] > 100 µM | [10] 34.4 µM | [11] 83.2 µM | [12] 91.4 µM | [13] > 100 µM

CC(C)NC(=O)OCc1nnn2c1C(OC(=O)NC(C)C)CC2 (centres undefined)
inactive: [1] > 100 µM | [2] > 100 µM | [4] > 100 µM | [14] > 100 µM | [5] > 100 µM | [6] > 100 µM | [7] > 100 µM | [8] > 100 µM | [9] > 100 µM | [10] > 100 µM | [12] > 100 µM | [13] > 100 µM

O=C(NCc1ccccc1)c1cc2ccc(O)c(O)c2cn1
inactive: [1] 21.7 µM | [2] 11.2 µM | [3] 32.1 µM | [4] > 100 µM | [14] 19.1 µM | [5] 16.4 µM | [6] 12.1 µM | [7] 18.1 µM | [8] 32.6 µM | [9] 35.4 µM | [10] 23.7 µM | [11] 3.82 µM | [12] > 100 µM | [13] 17.8 µM

S=c1[nH]c(=S)c2nnn(-c3ccccc3)c2[nH]1
inactive: [1] > 100 µM | [2] > 100 µM | [3] > 100 µM | [4] > 100 µM | [14] > 100 µM | [5] > 100 µM | [6] > 100 µM | [7] > 100 µM | [8] > 100 µM | [9] > 100 µM | [10] > 100 µM | [11] > 100 µM | [12] > 100 µM | [13] > 100 µM

C/C(=C\C(C)COCc1ccccc1)[C@H](COCc1ccccc1)OCc1ccccc1 (some centres undefined)
inactive: [1] > 100 µM | [2] > 100 µM | [3] 68.1 µM | [4] > 100 µM | [14] 50.1 µM | [5] > 100 µM | [6] 48 µM | [7] 83.9 µM | [9] > 100 µM | [10] > 100 µM | [11] 24.2 µM | [12] > 100 µM | [13] 80.2 µM

COC(=O)C(=O)C(/C(=N/N)C(=O)Nc1ccccc1C(N)=O)c1nc2ccc([N+](=O)[O-])cc2nc1O (centres undefined)
inactive: [1] > 100 µM | [2] > 100 µM | [3] > 100 µM | [14] > 100 µM | [5] > 100 µM | [6] > 100 µM | [7] 58.2 µM | [8] > 100 µM | [9] > 100 µM | [10] > 100 µM | [11] > 100 µM | [12] 18.4 µM

Nc1nc2c(ncn2CCOC(c2ccccc2)P(=O)(O)O)c(=O)[nH]1 (centres undefined)
inactive: [1] > 100 µM | [2] > 100 µM | [4] > 100 µM | [5] > 100 µM | [6] > 100 µM | [7] > 100 µM | [8] > 100 µM | [9] > 100 µM | [10] > 100 µM | [11] > 100 µM | [12] > 100 µM | [13] > 100 µM

O=C1CCc2ccc(O)c(c2)Oc2ccc(cc2)[C@@H]2O[C@@H]2CO1
inactive: [2] 75.5 µM | [3] 76 µM | [4] 27 µM | [14] 28.9 µM | [5] 49.2 µM | [6] 38.4 µM | [7] 23.8 µM | [8] 30.1 µM | [9] 82.6 µM | [10] 17.8 µM | [11] 40.8 µM | [12] 59.8 µM | [13] 37.9 µM
